This passage reports IC50 and Activity results from ChEMBL document CHEMBL1159250, “A novel phorbol ester from Excoecaria agallocha” (J Nat Prod, 1995).

In general, IC50 refers to the concentration at which inhibition is half-maximal.

The subject of data set [1] is Human immunodeficiency virus 1. Put plainly: Inhibition of HIV1 replication in human H9 cells assessed as inhibition of supernatant reverse transcriptase and p24 level. The format is functional, organism-based. The settings on record: Human immunodeficiency virus 1, H9.
For the next data set, the system named is H9. Kind of data set: Cytotoxicity in human H9 cells upto 2 uM. The format is cell-based.
The next data set addresses Protein kinase C (PKC). Kind of data set: Displacement of [3H]PDBu from rat brain membrane PKC. The data set is classed as tissue-based. A general note: Displacement assays read how much labelled ligand stays bound in the presence of the test substance.

Take `CCCC/C=C/C=C/CC(=O)O[C@@]12C[C@H](C)[C@@]3(O)[C@@H](C=C(CO)C[C@]4(O)C(=O)C(C)=C[C@@H]34)[C@@H]1C2(C)C`: the IC50 in data set [1] was 6 nM; at Protein kinase C (PKC) it was 17 nM. The Activity entry in the data set with H9 was “Non-toxic”.
